# Reference: patent US20260159482A1, “CRYSTAL FORM AND AMORPHOUS FORM OF CAREBASTINE P-TOLUENESULFONATE” (priority 2023, published 2026)
# Structures can show the parent of a compound that is named as a salt. Where two headings read alike, the source gives them in different places.
# What was measured:
# [1] = for AUC0-t / Cmax / T1/2 / Tmax / increase in AUC0-t compared with Comparative Example 1 / increase in AUC0-t compared with Comparative Example 2 / increase in Cmax compared with Comparative Example 1 / increase in Cmax compared with Comparative Example 2: male; for AUC0-t / Cmax / T1/2 / Tmax / Tmax compared with Comparative Example 2 / half-life (T1/2) compared with Comparative Example 2 / increase in AUC0-t compared with Comparative Example 1 / increase in AUC0-t compared with Comparative Example 2 / increase in Cmax compared with Comparative Example 1 / increase in Cmax compared with Comparative Example 2: dog, in vivo; for AUC0-t / Cmax / T1/2 / Tmax: po, 2.23 mg; for half-life (T1/2) compared with Comparative Example 1 / peak time (Tmax) compared with Comparative Example 1: vs ebastine
# Method: Ebastine (Comparative Example 1), carebastine (Comparative Example 2), a crystal form of carebastine p-toluenesulfonate (Example 2) and an amorphous form of carebastine p-toluenesulfonate (Example X) were prepared into enteric capsules, respectively.
# • Species: Beagle; • Level: normal level; • Animal number and gender: 8 males; • Age: […] old during grouping; • Body weight: the weight during grouping ranged from 8.90 to 10.3 kg, with an average of 10.0 kg.
# Dose: in terms of carebastine, each group was dosed at equimolar dose, and appropriate amounts of compounds were weighed and filled into capsules. That is, the drug of carebastine in each capsule is 2.23 mg.
# After the test compounds were filled into capsules, 2×4 crossover tests were carried out according to the table above. A 7-day elution period was counted from the start of administration. The corresponding test compounds were administered to each group in different test cycles.
# All animals were fasted overnight (for 12 h or more) before each administration, and feeding was resumed 4 h after the administration. The animals had free access to drinking water.
# Blood samples were collected at 0 h before administration, and at 10 min, 20 min, 30 min, 45 min, 1 h, 2 h, 3 h, 5 h, 6 h, 8 h, 10 h and 24 h after administration, for a total of 13 blood collection time points.
# Approximately 2 mL of blood was collected from a forelimb vein at the set blood collection time points and placed in an EDTA-K2 anticoagulation tube. Whole blood samples were kept at room temperature for 1.5 h after the collection and then centrifuged (at 3000 g centrifugal force, 4° C.) for 10 min.
# The concentration of carebastine in plasma was determined using liquid chromatography-mass spectrometry-mass spectrometry (HPLC-MS/MS).
# The pharmacokinetic parameters of each group were calculated using the non-compartmental model with the WinNonlin software (version 8.3 or higher).
# [2] = Hygroscopicity study (weight gain at 25° C., RH 80%, 24 h); type: physicochemical
# Method: • (1) The day prior to the test, a dry glass weighing bottle (with an outer diameter of 50 mm and a height of 15 mm) with a lid was placed in a suitable constant temperature dryer (the lower part of which holds a saturated solution of ammonium chloride or ammonium sulphate) at 25° C.±1° C. or an artificial climate chamber (at a temperature of 25° C.±1° C. and a relative humidity of 80%±2%), and the weight (m1) of the bottle with the lid was precisely weighed. • (2) An appropriate amount of the sample to be tested was evenly laid in the weighing bottle, with a thickness of generally about 1 mm, and the weight (m2) of the bottle with the lid was precisely weighed. • (3) The weighing bottle was kept open and placed together with the lid under constant temperature and humidity for 24 h. • (4) The weighing bottle was covered with the lid, and the weight (m3) was precisely weighed. • (5) Percentage of weight gain=(m3−m2)/(m2−m1)×100%.
# [3] = Stability study: influencing factors (high temperature, high humidity, light exposure), HPLC content; type: physicochemical; conditions: for Content, 0 day: HPLC external standard; for Content, High humidity, 30 days: high humidity (RH80%); for Content, High temperature, 30 days: high temperature (60° C.); for Content, Light exposure, 30 days: light exposure (5000 Lux)
# Method: 3 parts of each of the samples, carebastine (Comparative Example 2), the crystal form of carebastine p-toluenesulfonate (Example 2), and the amorphous form of carebastine p-toluenesulfonate (Example X), were weighed and placed in a weighing bottle, respectively, and each group of samples was placed under conditions of high temperature (60° C.), high humidity (RH80%) and light exposure (5000 Lux). Then, the samples were taken for detection after 30 days.
# Detection method: An appropriate amount of each sample was taken, weighed precisely, dissolved with acetonitrile and quantitatively diluted into a solution containing about 0.08 mg of sample per 1 ml. High performance liquid chromatography (HPLC) was used, with octadecylsilane-bonded silica gel as filler, water-acetonitrile (1:1) as mobile phase, a detection wavelength of 256 nm, a column temperature of 35° C. and an injection volume of 10 μl. Each sample solution was injected into the liquid chromatograph instrument, and the chromatograms were recorded. The content of carebastine was calculated by an external standard method, and the impurity content was calculated by a peak area normalization method.
Compound,AUC0-t ([1]; beagle) [ng·h/mL],Cmax ([1]; beagle) [ng/mL],T1/2 ([1]; beagle) [h],Tmax ([1]; beagle) [h],Percentage of weight gain (%) [2] [%],"Content, 0 day [3] [%]","Content, High humidity, 30 days ([3]; 30 days) [%]","Content, High temperature, 30 days ([3]; 30 days) [%]","Content, Light exposure, 30 days ([3]; 30 days) [%]",half-life (T1/2) compared with Comparative Example 1 ([1]; beagle),peak time (Tmax) compared with Comparative Example 1 ([1]; beagle),Tmax compared with Comparative Example 2 [1],half-life (T1/2) compared with Comparative Example 2 [1],increase in AUC0-t compared with Comparative Example 1 ([1]; beagle),increase in AUC0-t compared with Comparative Example 2 ([1]; beagle),increase in Cmax compared with Comparative Example 1 ([1]; beagle),increase in Cmax compared with Comparative Example 2 ([1]; beagle),further results
"CC(C)(C)c1ccc(C(=O)CCCN2CCC(OC(c3ccccc3)c3ccccc3)CC2)cc1 [Comparative Example 1, ebastine]",749 ± 127,179 ± 85.7,4.06 ± 1.19,2.25 ± 0.7,–,–,–,–,–,–,–,–,–,–,–,–,–,–
"CC(C)(C(=O)O)c1ccc(C(=O)CCCN2CCC(OC(c3ccccc3)c3ccccc3)CC2)cc1 [Comparative Example 2, 2-(4-(4-(4-(diphenylmethoxy)piperidine-1-yl)butyryl)phenyl)-2-methylpropanoic acid, reference compound]",840 ± 161,191 ± 51.4,3.74 ± 2.02,0.82 ± 0.52,6,99.18,98.11,98.12,87.28,–,–,–,–,–,–,–,–,"content decrease under high temperature and high humidity ([3]; 30 days, high temperature and high humidity): more than 1.0%; content decrease under light exposure ([3]; 30 days, light exposure): more than 10%; content of the maximum single impurity ([3]; after 30 days of influencing factor tests, peak area normalization): more than 0.5%"
"CC(C)(C(=O)O)c1ccc(C(=O)CCCN2CCC(OC(c3ccccc3)c3ccccc3)CC2)cc1 [Comparative Example 3, carebastine hydrochloride, reference compound]",–,–,–,–,–,–,–,–,–,–,–,–,–,–,–,–,–,Percentage of weight gain (%) ([2]; hydrochloride): 15.9%

# More lines, main results first:
AUC0-t ([1]; beagle) [ng·h/mL],Cmax ([1]; beagle) [ng/mL],T1/2 ([1]; beagle) [h],Tmax ([1]; beagle) [h],Percentage of weight gain (%) [2] [%],"Content, 0 day [3] [%]","Content, High humidity, 30 days ([3]; 30 days) [%]","Content, High temperature, 30 days ([3]; 30 days) [%]","Content, Light exposure, 30 days ([3]; 30 days) [%]",half-life (T1/2) compared with Comparative Example 1 ([1]; beagle),peak time (Tmax) compared with Comparative Example 1 ([1]; beagle),Tmax compared with Comparative Example 2 [1],half-life (T1/2) compared with Comparative Example 2 [1],increase in AUC0-t compared with Comparative Example 1 ([1]; beagle),increase in AUC0-t compared with Comparative Example 2 ([1]; beagle),increase in Cmax compared with Comparative Example 1 ([1]; beagle),increase in Cmax compared with Comparative Example 2 ([1]; beagle),Compound,further results
–,–,–,–,−0.1,99.42,99.42,99.43,99.39,prolonged,significantly shorter,essentially the same,prolonged,about 55%,about 38%,about 65%,about 55%,"CC(C)(C(=O)O)c1ccc(C(=O)CCCN2CCC(OC(c3ccccc3)c3ccccc3)CC2)cc1.Cc1ccc(S(=O)(=O)O)cc1 [Example 2, carebastine p-toluenesulfonate]","Cmax and AUC0-t compared with Example X ([1]; beagle, vs amorphous form): slightly higher; T1/2 compared with Example X ([1]; beagle, vs amorphous form): slightly longer"
–,–,–,–,0.3,98.59,98.58,98.54,98.51,prolonged,significantly shorter,essentially the same,prolonged,~31%,~17%,~46%,~37%,"CC(C)(C(=O)O)c1ccc(C(=O)CCCN2CCC(OC(c3ccccc3)c3ccccc3)CC2)cc1.Cc1ccc(S(=O)(=O)O)cc1 [Example X, carebastine p-toluenesulfonate]",–
